Measurements from US20190151277A1, “USES OF BIOACTIVE LIPIDS” (NESTEC S.A., priority 2014, published 2019).

Assays:
Format in all cases: cell-based
human islets [1] = assay: Acute insulin secretion assay with human islets from a lean non-diabetic donor; settings: 2 mM and 20 mM glucose, 15-deoxy-Δ12,14-PGJ2-2-G at 250 μM
Description: Insulin secretion assay was performed in low glucose (2 mM) and high glucose (20 mM) conditions with human islets from a lean non-diabetic donor. […] Both bioactive lipids improved glucose stimulated insulin release acutely. The results are expressed as ng secreted insulin per 10 islets.

human islets [2] = assay: Glucose stimulated insulin release in human islets after cytokine-induced dysfunction; settings: human islets of three donors, 50 μM 72 hours, cytokine mix last 48 hours
Description: During the last 48 hours, the cytokine mix was added (IL1beta 10 ng/ml, TNF alpha 25 ng/ml and INFgamma 10 ng/ml). Glucose stimulated insulin release was measured in low glucose (2 mM) and high glucose (20 mM) conditions. The bioactive lipid was able to improve glucose stimulated insulin release after cytokine-induced dysfunction.

human H716 cells = assay: GLP-1 secretion assay in human H716 cells; settings: 0.23 nM to 2.3 nM
Description: GLP-1 secretion assay was performed using human H716 cells in the presence of various concentration of the bioactive lipid from 0.23 nM to 2.3 nM.

Ins1E cells = assay: GSIS in Ins1E cells after 72 hours treatment; settings: 72 hours at 50 μM, 2 mM and 20 mM glucose
Description: (§1) After PGD2G treatment, glucose stimulated insulin release was measured in low glucose (2 mM) and high glucose (20 mM) conditions in KRB solution. The insulin release is expressed as released from the total content of insulin in Ins1E cells and mouse islets.

mouse islets = assay: GSIS in mouse islets after 72 hours treatment; settings: 72 hours at 50 μM, 2 mM and 20 mM glucose
Description: as §1

human islets [3] = assay: Beta cell function and incretin response in human islets from donors; settings: lean type 2 diabetic and non-diabetic obese donors, 50 μM, 72 hours
Description: Glucose stimulated insulin release was measured in low glucose (2 mM), high glucose (20 mM) and high glucose (20 mM)+0.1 uM Exendin4

[4] = Acute glucose stimulated insulin release normalized to total protein content; settings: 2 mM and 20 mM glucose, 470 μM, 2.3 nM, 230 nM bioactive lipid
Description: Glucose stimulated insulin release was measured in low glucose (2 mM) and high glucose (20 mM) in the presence of various concentrations (470 μM, 2.3 nM, 230 nM) of the bioactive lipid. The bioactive lipid improved glucose stimulated insulin release particularly at concentrations from 2.5 nM to 250 nM. The result are presented as insulin release normalized to total protein content.

Structure (SMILES) | insulin secretion (ng secreted insulin per 10 islets) (human islets [1]) | glucose stimulated insulin release after cytokine-induced dysfunction (human islets [2]) | GLP1 release normalized to total protein content (human H716 cells) | glucose stimulated insulin release (of total insulin content) (Ins1E cells) | glucose stimulated insulin release (of total insulin content) (mouse islets) | beta cell function (glucose stimulated insulin release) (human islets [3]) | incretin response (20 mM glucose + 0.1 uM Exendin4) (human islets [3]) | insulin release normalized to total protein content [4]
CCCCC[C@H](O)/C=C/[C@H]1C(=O)C[C@H](O)[C@@H]1C/C=C\CCCC(=O)OCC(O)CO (stereo partly drawn) [PGD2G, 9a, 15S-dihydroxy-11-oxo-5Z,13E-prostadienoic acid 1-glyceryl ester] | also increased insulin secretion compared to control tissues | protected human islets against cytokine induced dysfunction | increased GLP1 secretion | increased insulin secretion | increased insulin secretion | improved beta cell function | improved | acutely stimulated insulin secretion upon stimulation with glucose
CCCCC/C=C/C=C1/C(=O)C=C[C@@H]1C/C=C\CCCC(=O)OC(CO)CO [15-deoxy-Δ12,14-PGJ2-2-G, 11-oxo-5Z,9,12E,4E-prostatetraenoic acid-2-glycerol ester] | increased insulin secretion both with and without the presence of a white adipose tissue (WAT) fraction | – | – | – | – | – | – | –
